Results reported in patent publication US6908908B2, “Biologically active 4H-benzo [1,4] oxazin-3-ones” (Ortho-McNeil Pharmaceutical, Inc., priority 2000, dated 2005).

Molecular target: T1, PPAR γ (Homo sapiens, UniProt P37231)
T1 construct: Following the challenge of the preadipocytes, cells may be lysed with lysis buffer; endogenous in cells; host or cells: preadipocytes
T1 sequence (P37231 1-505): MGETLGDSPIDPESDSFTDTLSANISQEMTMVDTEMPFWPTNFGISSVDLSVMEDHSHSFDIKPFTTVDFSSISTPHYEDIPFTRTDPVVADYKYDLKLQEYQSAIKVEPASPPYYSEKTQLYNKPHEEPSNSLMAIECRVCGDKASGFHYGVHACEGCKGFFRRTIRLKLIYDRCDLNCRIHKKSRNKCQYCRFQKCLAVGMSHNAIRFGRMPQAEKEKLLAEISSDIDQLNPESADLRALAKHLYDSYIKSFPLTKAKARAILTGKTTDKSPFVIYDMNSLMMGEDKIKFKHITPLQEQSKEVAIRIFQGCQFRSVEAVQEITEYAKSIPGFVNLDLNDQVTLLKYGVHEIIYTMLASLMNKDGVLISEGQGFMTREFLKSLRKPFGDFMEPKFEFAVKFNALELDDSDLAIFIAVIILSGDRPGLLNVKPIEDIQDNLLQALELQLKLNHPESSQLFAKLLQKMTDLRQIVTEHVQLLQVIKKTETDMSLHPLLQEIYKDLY
Test: aP2 Assay for Agonist (induction of aP2 mRNA production); as to Agonist Intrinsic Activity: test concentration or dose not given here
Format: cell-based
Details: fold increase over vehicle in induction of aP2 mRNA production; for PPAR γ Agonist Intrinsic Activity: Table 3 (stereoisomers)

Row | SMILES | Agonist Intrinsic Activity (Table 1) | also measured
1 | CC(C)CCCCN1C(=O)C(CCOc2ccccc2CC(=O)O)Oc2ccccc21 (stereo not shown) [Compound 72] | 32 | 
2 | CC(C)(C)CCCCN1C(=O)C(CCOc2ccccc2CC(=O)O)Oc2ccccc21 (stereo not shown) [Compound 74] | 22.0 | 
3 | CC(CCN1C(=O)C(CCOc2ccccc2CC(=O)O)Oc2ccccc21)CC(C)(C)C (stereo not shown) [Compound 76] | 28.7 | 
4 | COC(=O)Cc1ccccc1OCCC1Oc2ccccc2N(CCCCC(C)=O)C1=O (stereo not shown) [Compound 77, Benzeneacetic acid, 2-[2-[3,4-dihydro-3-oxo-4-(5-oxohexyl)-2H-1,4-benzoxazin-2-yl]ethoxy]-, methyl ester] | 9.9 | 
5 | CC(=O)CCCCN1C(=O)C(CCOc2ccccc2CC(=O)O)Oc2ccccc21 (stereo not shown) [Compound 78, Benzeneacetic acid, 2-[2-[3,4-dihydro-3-oxo-4-(5-oxohexyl)-2H-1,4-benzoxazin-2-yl]ethoxy]-] | 11.1 | 
6 | CON=C(C)CCCCN1C(=O)C(CCOc2ccccc2CC(=O)O)Oc2ccccc21 (stereo not shown) [Compound 80] | 2.8 | 
7 | CC(O)CCCCN1C(=O)C(CCOc2ccccc2CC(=O)O)Oc2ccccc21 (stereo not shown) [Compound 82, Benzeneacetic acid, 2-[2-[3,4-dihydro-4-(5-hydroxyhexyl)-3-oxo-2H-1,4-benzoxazin-2-yl]ethoxy]-] | 4.9 | 
8 | CC(C)(O)CCCCN1C(=O)C(CCOc2ccccc2CC(=O)O)Oc2ccccc21 (stereo not shown) [Compound 84] | 3.5 | 
9 | CC(=O)NC(C)CCCCN1C(=O)C(CCOc2ccccc2CC(=O)O)Oc2ccccc21 (stereo not shown) [Compound 85] | 24 | 
10 | CC(F)(F)CCCCN1C(=O)C(CCOc2ccccc2CC(=O)O)Oc2ccccc21 (stereo not shown) [Compound 87] | 37.9 | 
11 | O=C(O)Cc1ccccc1OCCC1Oc2ccccc2N(CCCCCCF)C1=O (stereo not shown) [Compound 91, Benzeneacetic acid, 2-[2-[4-(6-fluorohexyl)-3,4-dihydro-3-oxo-2H-1,4-benzoxazin-2-yl]ethoxy]-] | 64.9 | 
12 | O=C(O)Cc1ccccc1OCCC1Oc2ccccc2N(CCCCCCO)C1=O (stereo not shown) [Compound 95] | 36.9 | 
13 | CC(C)(CN)CCCCN1C(=O)C(CCOc2ccccc2CC(=O)O)Oc2ccccc21 (stereo not shown) [Compound 96] | 27.5 | 
14 | NC(=O)CCCCCN1C(=O)C(CCOc2ccccc2CC(=O)O)Oc2ccccc21 (stereo not shown) [Compound 98, Benzeneacetic acid, 2-[2-[4-(6-amino-6-oxohexyl)-3,4-dihydro-3-oxo-2H-1,4-benzoxazin-2-yl]ethoxy]-] | 28 | 
15 | O=C(O)CCCCCN1C(=O)C(CCOc2ccccc2CC(=O)O)Oc2ccccc21 (stereo not shown) [Compound 101, 2H-1,4-Benzoxazine-4-hexanoic acid, 2-[2-[2-(carboxymethyl)phenoxy]ethyl]-3,4-dihydro-3-oxo-] | 3.0 | 
16 | CC(C)(CCCCN1C(=O)C(CCOc2ccccc2CC(=O)O)Oc2ccccc21)C(=O)O (stereo not shown) [Compound 102] | 4.1 | 
17 | CC(C)(C#N)CCCCN1C(=O)C(CCOc2ccccc2CC(=O)O)Oc2ccccc21 (stereo not shown) [Compound 104] | 26.5 | 
18 | CC(F)(F)CCCCCN1C(=O)C(CCOc2ccccc2CC(=O)O)Oc2ccccc21 (stereo not shown) [Compound 106] | 40.8 | 
19 | CC(=O)CCCCCN1C(=O)C(CCOc2ccccc2CC(=O)O)Oc2ccccc21 (stereo not shown) [Compound 108] | 37.3 | 

Row | SMILES | Agonist Intrinsic Activity (Table 1) | also measured
20 | O=C(O)Cc1ccccc1OCCC1Oc2ccccc2N(CCCCCCCF)C1=O (stereo not shown) [Compound 110] | 64.5 | 
21 | O=C(O)Cc1ccccc1OCCC1Oc2ccccc2N(CCCCCCCO)C1=O (stereo not shown) [Compound 112] | 74.5 | 
22 | O=C(O)Cc1ccccc1OCCC1Oc2ccccc2N(CCCCCF)C1=O (stereo not shown) [Compound 113] | 29.1 | 
23 | COCCCCN1C(=O)C(CCOc2ccccc2CC(=O)O)Oc2ccccc21 (stereo not shown) [Compound 114] | 50.7 | 
24 | CCOCCCN1C(=O)C(CCOc2ccccc2CC(=O)O)Oc2ccccc21 (stereo not shown) [Compound 115] | 40.9 | 
25 | CCCSCCN1C(=O)C(CCOc2ccccc2CC(=O)O)Oc2ccccc21 (stereo not shown) [Compound 116] | 4.0 | 
26 | CCCOCCN1C(=O)C(CCOc2ccccc2CC(=O)O)Oc2ccccc21 (stereo not shown) [Compound 117] | 45.9 | 
27 | COC(=O)Cc1ccccc1OCCC1Oc2ccccc2N(c2ccc(Cl)c(Cl)c2)C1=O (stereo not shown) [Compound 118] | 0.9 | 
28 | O=C(O)Cc1ccccc1OCCC1Oc2ccccc2N(c2ccc(Cl)c(Cl)c2)C1=O (stereo not shown) [Compound 119] | 22.8 | 
29 | CCCCCCN1C(=O)C(CCOc2ccc(SC(C)(C)C(=O)O)cc2)Oc2ccccc21 (stereo not shown) [Compound 121] | 16.13 | 
30 | CCCNC(=O)CN1C(=O)C(CCOc2ccccc2CC(=O)O)Oc2ccccc21 (stereo not shown) [Compound 122] | 40.83 | 
31 | CNC(=O)CCCN1C(=O)C(CCOc2ccccc2CC(=O)O)Oc2ccccc21 (stereo not shown) [Compound 124] | 4.00 | 
32 | CC(=O)NCCCCCCN1C(=O)C(CCOc2ccccc2CC(=O)O)Oc2ccccc21 (stereo not shown) [Compound 125] | 10.78 | 
33 | CS(=O)(=O)NCCCCCCN1C(=O)C(CCOc2ccccc2CC(=O)O)Oc2ccccc21 (stereo not shown) [Compound 126, Benzeneacetic acid, 2-[2-[3,4-dihydro-3-oxo-4-(6-methanesulfonamidohexyl)-2H-1,4-benzoxazin-2-yl]ethoxy]-] | 12.96 | 
34 | CCCCCCN1C(=O)C(C)(CCOc2ccccc2CC(=O)O)Oc2ccccc21 (stereo not shown) [Compound 128, Benzeneacetic acid, 2-[2-(4-hexyl-3,4-dihydro-2-methyl-3-oxo-2H-1,4-benzoxazin-2-yl)ethoxy]-] |  | Agonist Intrinsic Activity (Table 2): 2.5
35 | CCCCCCN1C(=O)C(CCOc2ccc(OC(C)(C)C(=O)O)cc2)Oc2ccccc21 (stereo not shown) [Compound 129] |  | PPAR γ Agonist Intrinsic Activity: 12.62
36 | CCCCCCN1C(=O)[C@](C)(CCOc2ccccc2CC(=O)O)Oc2ccccc21 [Compound 130] |  | PPAR γ Agonist Intrinsic Activity: 91.3
37 | CC1(CCOc2ccccc2CC(=O)O)Oc2ccccc2N(CCCCCCF)C1=O (stereo not shown) [Compound 131] |  | PPAR γ Agonist Intrinsic Activity: 36.4
